Where a name gives a salt, the structure may show the parent alone.

These results are taken from US12319679B2, “Morpholinyl, piperazinyl, oxazepanyl and diazepanyl O-glycoprotein-2-acetamido-2-deoxy-3-d-glucopyranosidase inhibitors” (BIOGEN MA INC., priority 2018, dated 2025).

In the test the target is T1, Recombinant full length human OGA enzyme (Homo sapiens, UniProt O60502).
T1 construct: Recombinant full length human OGA enzyme was purchased from Origene; purchased Origene
T1 sequence (O60502 1-916): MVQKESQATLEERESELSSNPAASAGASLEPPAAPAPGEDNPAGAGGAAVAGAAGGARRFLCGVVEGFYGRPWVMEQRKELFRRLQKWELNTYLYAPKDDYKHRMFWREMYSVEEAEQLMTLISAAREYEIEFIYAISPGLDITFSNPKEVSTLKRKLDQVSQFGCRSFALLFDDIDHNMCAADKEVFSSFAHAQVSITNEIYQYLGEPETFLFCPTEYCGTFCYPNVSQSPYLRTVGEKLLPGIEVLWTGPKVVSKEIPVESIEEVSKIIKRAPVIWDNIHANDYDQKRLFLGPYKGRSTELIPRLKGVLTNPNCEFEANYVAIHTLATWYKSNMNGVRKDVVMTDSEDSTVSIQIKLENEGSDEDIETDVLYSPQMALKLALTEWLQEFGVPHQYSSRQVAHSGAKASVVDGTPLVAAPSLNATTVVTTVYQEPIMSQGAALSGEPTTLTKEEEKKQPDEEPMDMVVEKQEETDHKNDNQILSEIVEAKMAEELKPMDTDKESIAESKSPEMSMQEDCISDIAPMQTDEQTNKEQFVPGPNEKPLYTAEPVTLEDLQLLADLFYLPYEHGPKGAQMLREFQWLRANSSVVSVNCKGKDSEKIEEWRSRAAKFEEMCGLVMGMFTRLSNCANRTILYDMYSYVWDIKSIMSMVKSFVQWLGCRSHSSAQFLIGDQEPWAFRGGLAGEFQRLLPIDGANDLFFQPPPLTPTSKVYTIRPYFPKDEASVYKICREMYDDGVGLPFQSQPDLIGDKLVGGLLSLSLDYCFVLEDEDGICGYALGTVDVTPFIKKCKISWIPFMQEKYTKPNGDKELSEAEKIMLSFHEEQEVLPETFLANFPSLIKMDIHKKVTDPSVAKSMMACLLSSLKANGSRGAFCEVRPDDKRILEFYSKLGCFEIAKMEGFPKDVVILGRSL
Put plainly: OGA Enzyme Inhibition Biochemical Assay. The conditions noted are these: 1 nM OGA, 100 μM 4-MUGlcNAc (Km), pH 6.4, 90 minutes at room temperature; 10-point dose-response starting from 20 μM. The protocol:
OGA Enzyme Inhibition Biochemical Assay
Recombinant full length human OGA enzyme was purchased from Origene. 4-MUGlCNAc substrate was purchased from Sigma. All other reagents were purchased from Sigma or Fisher. Assay buffer consists of the McIlvaine buffer system, pH 6.4 (0.2M Na2HPO4 mixed with 0.1M citric acid) and 0.01% BSA. Reactions consist of 1 nM OGA, 100 μM 4-MUGlcNAc (Km), and compound in a final volume of 10 μl. Reactions were incubated for 90 minutes at room temperature and quenched with 40 μl of 3M glycine, pH 10 and read on a Perkin Elmer Envision plate reader (Ex: 355 nm/Em: 460 nm). Compounds were tested with a 10-point dose-response starting from 20 μM with a 4-fold dilution. Data was fit using GraphPad Prism using a 4-paramter fit with variable slope.
For orientation: IC50 means the midpoint of a concentration-inhibition curve. Consider `CC(=O)Nc1ncc(CN2C[C@@H](Cc3ncc(F)cn3)NC[C@@H]2C)s1` [Example 2-5], for which the IC50 was found to be 19 nM. For `CC(=O)Nc1ncc(CN2C[C@@H](Cc3ncc(F)cn3)N(C)C[C@@H]2C)s1` [Example 2-6, N-(5-(((2S,5R)-5-((5-fluoropyrimidin-2-yl)methyl)-2,4-dimethylpiperazin-1-yl)methyl)thiazol-2-yl)acetamide], the IC50 worked out at 17 nM.

On to `CC(=O)Nc1ncc(CN2C[C@@H](Cc3ncc(F)cn3)N(C(C)=O)C[C@@H]2C)s1` [Example 2-7, N-(5-(((2S,5R)-4-acetyl-5-((5-fluoropyrimidin-2-yl)methyl)-2-methylpiperazin-1-yl)methyl)thiazol-2-yl)acetamide], for which the IC50 turned out to be 9600 nM. For `CC(=O)Nc1ncc(CN2C[C@@H](Cc3cc(C)nc(C)c3)NC[C@@H]2C)s1` [Example 2-8, N-(5-(((2S,5R)-5-((2,6-dimethylpyridin-4-yl)methyl)-2-methylpiperazin-1-yl)methyl)thiazol-2-yl)acetamide] the value was 9.1 nM; for `CC(=O)Nc1ncc(CN2C[C@@H](Cc3ccc(C)nc3)NC[C@@H]2C)s1` [Example 2-9, N-(5-(((2S,5R)-2-methyl-5-((6-methylpyridin-3-yl)methyl)piperazin-1-yl)methyl)thiazol-2-yl)acetamide], 45 nM.

Take `CC(=O)Nc1ncc(CN2C[C@@H](Cc3cc(C)nc(C)c3)N(C)C[C@@H]2C)s1` [Example 2-10]: the IC50 was determined as 34 nM.

On to `CC(=O)Nc1ncc(CN2C[C@@H](Cc3ccc(C)nc3)N(C)C[C@@H]2C)s1` [Example 2-11, N-(5-(((2S,5R)-2,4-dimethyl-5-((6-methylpyridin-3-yl)methyl)piperazin-1-yl)methyl)thiazol-2-yl)acetamide], for which the IC50 came to 45 nM. Regarding `CCN1C[C@H](C)N(Cc2cnc(NC(C)=O)s2)C[C@H]1Cc1ccc(C)nc1` [Example 2-12, N-(5-(((2S,5R)-4-ethyl-2-methyl-5-((6-methylpyridin-3-yl)methyl)piperazin-1-yl)methyl)thiazol-2-yl)acetamide], the IC50 worked out at 180 nM.

On to `CC(=O)Nc1ncc(CN2C[C@@H](Cc3cc(C)nc(C)n3)NC[C@@H]2C)s1` [Example 2-13], for which the IC50 was 22 nM. For `COc1cc(C[C@@H]2CN(Cc3cnc(NC(C)=O)s3)[C@@H](C)CN2)ccn1` [Example 2-14, N-(5-(((2S,5R)-5-((2-methoxypyridin-4-yl)methyl)-2-methylpiperazin-1-yl)methyl)thiazol-2-yl)acetamide], the IC50 is 7.5 nM. As for `CC(=O)Nc1ncc(CN2C[C@@H](Cc3cc(C)nc(C)c3)N(C(C)=O)C[C@@H]2C)s1` [Example 2-15, N-(5-(((2S,5R)-4-acetyl-5-((2,6-dimethylpyridin-4-yl)methyl)-2-methylpiperazin-1-yl)methyl)thiazol-2-yl)acetamide], the IC50 worked out at 5900 nM.

Regarding `CC(=O)Nc1ncc(CN2C[C@@H](Cc3cc(C)nc(C)n3)N(C)C[C@@H]2C)s1` [Example 2-17], the IC50 is 41 nM. Consider `COc1cc(C[C@@H]2CN(Cc3cnc(NC(C)=O)s3)[C@@H](C)CN2C)ccn1` [Example 2-18], for which the IC50 was 4.9 nM. The result for `CC(=O)Nc1ncc(CN2CCCNC(Cc3ncc(F)cn3)C2)s1` (stereo not shown) [Example 2-23, N-(5-((3-((5-fluoropyrimidin-2-yl)methyl)-1,4-diazepan-1-yl)methyl)thiazol-2-yl)acetamide] reads 5600 nM; that for `CC(=O)Nc1ncc(CN2CCCN(C)C(Cc3ncc(F)cn3)C2)s1` (stereo not shown) [Example 2-24, N-(5-((3-((5-fluoropyrimidin-2-yl)methyl)-4-methyl-1,4-diazepan-1-yl)methyl)thiazol-2-yl)acetamide], 12000 nM. Consider `COc1cc(CC2CN(Cc3cnc(NC(C)=O)s3)CCCN2)ccn1` (stereo not shown) [Example 2-25, N-(5-((3-((2-methoxypyridin-4-yl)methyl)-1,4-diazepan-1-yl)methyl)thiazol-2-yl)acetamide], for which the IC50 was above 20000 nM. For `COc1cc(CC2CN(Cc3cnc(NC(C)=O)s3)CCCN2C(C)=O)ccn1` (stereo not shown) [Example 2-26, N-(5-((4-acetyl-3-((2-methoxypyridin-4-yl)methyl)-1,4-diazepan-1-yl)methyl)thiazol-2-yl)acetamide], the IC50 is above 20000 nM. As for `CC(=O)Nc1ncc(CN2CCCNC(Cc3ccnc(C)c3)C2)s1` (stereo not shown) [Example 2-27, N-(5-((3-((2-methylpyridin-4-yl)methyl)-1,4-diazepan-1-yl)methyl)thiazol-2-yl)acetamide], the IC50 is 9900 nM. For the molecule `CC(=O)Nc1ncc(CN2CCCNC(Cc3cc(C)nc(C)c3)C2)s1` (stereo not shown) [Example 2-28, N-(5-((3-((2,6-dimethylpyridin-4-yl)methyl)-1,4-diazepan-1-yl)methyl)thiazol-2-yl)acetamide], the IC50 amounted to 12000 nM. With `CC(=O)Nc1ncc(CN2CCCN(C(C)=O)C(Cc3cc(C)nc(C)c3)C2)s1` (stereo not shown) [Example 2-29, N-(5-((4-acetyl-3-((2,6-dimethylpyridin-4-yl)methyl)-1,4-diazepan-1-yl)methyl)thiazol-2-yl)acetamide], the IC50 is above 20000 nM. Turning to `CC(=O)Nc1ncc(CN2C[C@@H](COc3cc(C)nc(C)c3)NC[C@@H]2C)s1` [Example 3-1, N-(5-(((2S,5S)-5-(((2,6-dimethylpyridin-4-yl)oxy)methyl)-2-methylpiperazin-1-yl)methyl)thiazol-2-yl)acetamide], the IC50 was found to be 21 nM.

For the molecule `CC(=O)Nc1ncc(CN2C[C@@H](COc3cc(C)nc(C)c3)N(C)C[C@@H]2C)s1` [Example 3-2, N-(5-(((2S,5S)-5-(((2,6-dimethylpyridin-4-yl)oxy)methyl)-2,4-dimethylpiperazin-1-yl)methyl)thiazol-2-yl)acetamide], the IC50 was 38 nM.

Turning to `CC(=O)Nc1ncc(CN2C[C@@H](COc3cc(C)nc(C)c3)N(C(C)=O)C[C@@H]2C)s1` [Example 3-3], the IC50 stood at 11000 nM.

For `CC(=O)Nc1ncc(CN2C[C@@H](COc3cc(C)nc(C)c3)OC[C@@H]2C)s1` [Example 3-4, N-(5-(((2S,5S)-2-(((2,6-dimethylpyridin-4-yl)oxy)methyl)-5 methylmorpholino)methyl)thiazol-2-yl)acetamide], the IC50 turned out to be 17 nM. As for `CC(=O)Nc1ncc(CN2CCN(C)CC(COc3ncc(F)cn3)C2)s1` (stereo not shown) [Example 3-5, N-(5-((6-(((5-fluoropyrimidin-2-yl)oxy)methyl)-4-methyl-1,4-diazepan-1-yl)methyl)thiazol-2-yl)acetamide], the IC50 was above 20000 nM. As for `CC(=O)Nc1ncc(CN2CCN[C@H](Cc3cc(C)nc(C)c3)C2)s1` [Example 4-1, (R)—N-(5-((3-((2,6-dimethylpyridin-4-yl)methyl)piperazin-1-yl)methyl)thiazol-2-yl)acetamide hydrochloride], the IC50 was found to be 7000 nM. `CC(=O)Nc1ncc(CN2CCN[C@@H](Cc3cc(C)nc(C)c3)C2)s1` [Example 4-2, (S)—N-(5-((3-((2,6-dimethylpyridin-4-yl)methyl)piperazin-1-yl)methyl)thiazol-2-yl)acetamide hydrochloride]: the IC50 is 350 nM. As to `CC(=O)Nc1ncc(CN2CCN(C)[C@H](Cc3cc(C)nc(C)c3)C2)s1` [Example 4-3, (R)—N-(5-((3-((2,6-dimethylpyridin-4-yl)methyl)-4-methylpiperazin-1-yl)methyl)thiazol-2-yl)acetamide], the IC50 was found to be 1600 nM.
